A compilation of properties of binary mixtures (doi:10.1007/s10953-021-01127-x)

Assay: xn = mol fraction of the nth substance listed
Conditions: 100 kPa

CCCC[n+]1ccn(C)c1C.F[B-](F)(F)F + O=C1CCCN1
speed of sound [m/s]
Conditions	293.15 K	298.15 K	303.15 K	308.15 K
x1 = 0.0698	1659.6	1644.9	1629.3	1615.7
x1 = 0.1052	–	1649.6	1634.8	1621.9
x1 = 0.1469	–	–	1640.6	1628.7
x1 = 0.1948	1670.6	1659.8	–	1634.9
x1 = 0.2495	1672.1	1662.8	–	1638.3
x1 = 0.2945	1671.9	1663.3	1652	1640.1
x1 = 0.3428	1670.8	1662	1651.2	1639.9
x1 = 0.3964	1666.8	1658.3	–	1637.2
x1 = 0.4419	1661.9	–	1643.3	1633
x1 = 0.5004	1653.8	1645.7	1635.6	1625.8
x1 = 0.5563	1645.8	1637.1	1626.5	1617.3
x1 = 0.5949	1640.2	1630.9	1620.4	1611.1
x1 = 0.6419	–	1623.6	1613.1	1603.7
x1 = 0.6984	1626.6	1616.1	1605.4	1595.6
x1 = 0.7521	1622.1	–	1599.8	1589.4
x1 = 0.8031	–	1608.8	1596.7	1586.2
x1 = 0.8549	1623.2	1610.3	1597.8	1586.8
x1 = 0.9021	–	1615.8	1603.4	1591.6
x1 = 0.9564	1642.5	1628.7	–	1603.7
